Legend:
[1] = biological target: T1, Alpha 2B receptor (Homo sapiens, UniProt P18089); assay: RSAT (Receptor Selection and Amplification Technology) assay, alpha 2B; assay type: cell-based; details: for EC50: NIH-3T3 cells cotransfected with receptor and Gq/i5, na = not active; for RSAT (rel eff) Alpha 2B, intrinsic activity: ratio of maximal effect of the drug to maximal effect of standard full agonist brimonidine
T1 construct: expressed in transfected cells; host or cells: NIH-3T3
T1 sequence (P18089 1-450): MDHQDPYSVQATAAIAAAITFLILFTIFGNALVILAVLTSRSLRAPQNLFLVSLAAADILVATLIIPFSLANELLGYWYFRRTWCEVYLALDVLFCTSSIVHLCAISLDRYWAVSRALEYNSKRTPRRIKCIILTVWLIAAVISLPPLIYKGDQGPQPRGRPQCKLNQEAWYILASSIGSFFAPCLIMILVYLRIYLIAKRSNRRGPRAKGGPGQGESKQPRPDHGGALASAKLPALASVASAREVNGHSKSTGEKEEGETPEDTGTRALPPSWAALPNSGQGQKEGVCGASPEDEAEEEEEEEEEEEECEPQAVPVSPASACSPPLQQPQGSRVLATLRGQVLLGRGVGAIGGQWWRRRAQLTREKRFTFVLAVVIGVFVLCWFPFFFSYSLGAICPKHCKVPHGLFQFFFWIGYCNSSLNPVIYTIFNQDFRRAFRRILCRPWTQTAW
Method: (§1) 76, pp. 308-311 (incorporated herein by reference) and is also described below.
(§2) The RSAT assay measures a receptor-mediated loss of contact inhibition that results in selective proliferation of receptor-containing cells in a mixed population of confluent cells. The increase in cell number is assessed with an appropriate transfected marker gene such as β-galactosidase, the activity of which can be easily measured in a 96-well format. Receptors that activate the G protein, Gq, elicit this response. Alpha 2 receptors, which normally couple to Gi, activate the RSAT response when coexpressed with a hybrid Gq protein that has a Gi receptor recognition domain, called Gq/i5.
(§3) NIH-3T3 cells are plated at a density of 2×10^6 cells in 15 cm dishes and maintained in Dulbecco's modified Eagle's medium supplemented with 10% calf serum. One day later, cells are cotransfected by calcium phosphate precipitation with mammalian expression plasmids encoding p-SV-β-galactosidase (5-10 μg), receptor (1-2 μg) and G protein (1-2 μg). 40 μg salmon sperm DNA may also be included in the transfection mixture. Fresh media is added on the following day and 1-2 days later, cells are harvested and frozen in 50 assay aliquots. Cells are thawed and 100 μl added to 100 μL aliquots of various concentrations of drugs in triplicate in 96-well dishes. Incubations continue 72-96 hr at 37° C. After washing with phosphate-buffered saline, β-galactosidase enzyme activity is determined by adding 200 μL of the chromogenic substrate (consisting of 3.5 mM o-nitrophenyl-β-D-galactopyranoside and 0.5% nonidet P-40 in phosphate buffered saline), incubating overnight at 30° C. and measuring optical density at 420 nm. The absorbance is a measure of enzyme activity, which depends on cell number and reflects a receptor-mediated cell proliferation. The efficacy or intrinsic activity is calculated as a ratio of the maximal effect of the drug to the maximal effect of a standard full agonist for each receptor subtype. Brimonidine, the chemical structure of which is shown below, is used as the standard agonist for the alpha 2B and alpha 2C receptors.

[2] = biological target: T2, Alpha 2C receptor (Homo sapiens, UniProt P18825); assay: RSAT (Receptor Selection and Amplification Technology) assay, alpha 2C; assay type: cell-based; details: for EC50: NIH-3T3 cells cotransfected with receptor and Gq/i5, na = not active; for RSAT (rel eff) Alpha 2C, intrinsic activity: ratio of maximal effect of the drug to maximal effect of standard full agonist brimonidine
T2 construct: expressed in transfected cells; host or cells: NIH-3T3
T2 sequence (P18825 1-462): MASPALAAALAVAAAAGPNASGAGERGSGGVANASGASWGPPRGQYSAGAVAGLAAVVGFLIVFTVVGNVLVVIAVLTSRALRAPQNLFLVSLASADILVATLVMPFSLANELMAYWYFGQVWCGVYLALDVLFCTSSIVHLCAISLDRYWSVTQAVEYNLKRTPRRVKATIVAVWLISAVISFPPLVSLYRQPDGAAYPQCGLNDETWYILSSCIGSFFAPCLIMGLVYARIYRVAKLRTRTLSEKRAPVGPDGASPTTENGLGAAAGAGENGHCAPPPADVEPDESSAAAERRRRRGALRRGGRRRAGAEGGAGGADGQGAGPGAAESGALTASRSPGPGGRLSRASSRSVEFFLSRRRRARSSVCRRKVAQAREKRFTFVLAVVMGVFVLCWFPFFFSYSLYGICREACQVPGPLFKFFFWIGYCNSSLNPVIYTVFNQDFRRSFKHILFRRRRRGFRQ
Method: as §1, §2, §3

EC50 [1] [nM]	RSAT (rel eff) Alpha 2B, intrinsic activity [1]	EC50 [2] [nM]	RSAT (rel eff) Alpha 2C, intrinsic activity [2]	Compound
6.38	0.77	–	–	c1ccc(CC(N=C2NCCN2)c2ccccc2)cc1 (centres unmarked)
3.69	0.95	3.36	0.45	c1ccc(CC(/N=C2\NCCO2)c2ccccc2)cc1 (centres unmarked)
2.96	0.82	4.33	0.44	Cc1cccc(CC(/N=C2/NCCS2)c2cccc(Cl)c2)c1 (centres unmarked)
7.14	0.83	4.39	0.37	Clc1cccc(C(Cc2ccccc2)/N=C2\NCCO2)c1 (centres unmarked)
6.49	0.89	4.71	0.33	Clc1cccc(C(Cc2ccccc2)/N=C2/NCCS2)c1 (centres unmarked)
5.91	0.76	–	–	Clc1cccc(C(Cc2ccccc2)N=C2NCCN2)c1 (centres unmarked)
1.52	0.81	3.7	0.38	Cc1cccc(CC(N=C2NCCN2)c2cccc(Cl)c2)c1 (centres unmarked)
7.32	0.76	11.8	0.45	Cc1ccc(CC(/N=C2/NCCS2)c2cccc(Cl)c2)cc1 (centres unmarked)
5.61	0.69	–	–	Cc1ccc(CC(N=C2NCCN2)c2cccc(Cl)c2)cc1 (centres unmarked)
1.92	0.87	–	–	Cc1ccccc1CC(N=C1NCCN1)c1cccc(Cl)c1 (centres unmarked)
5.11	0.74	6.78	0.46	Cc1ccc(CC(/N=C2\NCCO2)c2cccc(Cl)c2)cc1 (centres unmarked)
3.29	0.89	8.34	0.46	Cc1ccccc1CC(/N=C1/NCCS1)c1cccc(Cl)c1 (centres unmarked)
3.69	0.89	9.48	0.45	Cc1cccc(C(Cc2ccccc2)/N=C2/NCCS2)c1C (centres unmarked)
1.52	0.87	1.46	0.39	Cc1ccccc1CC(/N=C1\NCCO1)c1cccc(Cl)c1 (centres unmarked)
7.64	0.77	–	–	Cc1c(Cl)cccc1C(Cc1ccccc1)N=C1NCCN1 (centres unmarked)
3.48	0.89	13.4	0.39	Cc1cccc(C(Cc2ccccc2)/N=C2\NCCO2)c1C (centres unmarked)

EC50 [1] [nM]	RSAT (rel eff) Alpha 2B, intrinsic activity [1]	EC50 [2] [nM]	RSAT (rel eff) Alpha 2C, intrinsic activity [2]	Compound
2.79	0.93	2.57	0.32	Fc1c(Cl)cccc1C(Cc1ccccc1)/N=C1\NCCO1 (centres unmarked)
4.54	0.89	6.48	0.38	Fc1c(Cl)cccc1C(Cc1ccccc1)/N=C1/NCCS1 (centres unmarked)
3.09	0.89	–	–	Clc1cccc(C(Cc2ccccc2)N=C2NCCN2)c1Cl (centres unmarked)
3.73	0.89	–	–	Fc1ccc(CC(N=C2NCCN2)c2cccc(Cl)c2Cl)cc1 (centres unmarked)
3.24	0.89	–	–	Clc1cccc(C(Cc2ccccc2Br)N=C2NCCN2)c1Cl (centres unmarked)
1.91	1.00	–	–	COc1cccc(CC(N=C2NCCN2)c2cccc(Cl)c2Cl)c1 (centres unmarked)
8.04	0.95	3.54	0.31	Cc1c(F)cccc1CC(N=C1NCCN1)c1cccc(Cl)c1Cl (centres unmarked)
1.02	0.98	3.92	0.39	Clc1ccc(Cl)c(CC(N=C2NCCN2)c2cccc(Cl)c2Cl)c1 (centres unmarked)
12.5	0.89	–	–	Fc1cccc(Cl)c1CC(N=C1NCCN1)c1cccc(Cl)c1Cl (centres unmarked)
0.9	1.20	5.74	0.42	Clc1cc(Cl)cc(CC(N=C2NCCN2)c2cccc(Cl)c2Cl)c1 (centres unmarked)
2.79	1.17	–	–	Clc1ccc(CC(N=C2NCCN2)c2cccc(Cl)c2Cl)c(Cl)c1 (centres unmarked)
10.8	0.96	–	–	Clc1ccc(CC(NC2=NCCN2)c2cccc(Cl)c2Cl)cc1Cl (centres unmarked)
1.55	1.05	–	–	Oc1cccc(CC(NC2=NCCN2)c2cccc(Cl)c2Cl)c1 (centres unmarked)
0.61	0.89	–	–	COc1ccccc1CC(NC1=NCCN1)c1cccc(Cl)c1 (centres unmarked)
0.63	0.91	–	–	COc1ccccc1CC(NC1=NCCO1)c1cccc(Cl)c1 (centres unmarked)
0.86	0.92	–	–	Clc1cccc(C(Cc2ccccc2Br)NC2=NCCO2)c1 (centres unmarked)

Compound	EC50 [1] [nM]	RSAT (rel eff) Alpha 2B, intrinsic activity [1]	EC50 [2] [nM]	RSAT (rel eff) Alpha 2C, intrinsic activity [2]
c1ccc(CC(/N=C2/NCCS2)c2ccccc2)cc1 (centres unmarked)	5.43	0.90	9.63	0.42
Cc1cccc(CC(/N=C2\NCCO2)c2cccc(Cl)c2)c1 (centres unmarked)	2.79	0.92	8.56	0.63
Cc1cccc(C(Cc2ccccc2)N=C2NCCN2)c1C (centres unmarked)	2.54	0.83	–	–
Fc1c(Cl)cccc1C(Cc1ccccc1)N=C1NCCN1 (centres unmarked)	3.57	0.85	1.97	0.39

From patent US20090239918A1, “SELECTIVE SUBTYPE ALPHA 2 ADRENERGIC AGENTS AND METHODS FOR USE THEREOF” (ALLERGAN, INC., priority 2008, published 2009)
